Values quoted from earlier work in patent US10550186B2, “Cancer therapy targeting intercellular adhesion molecule 4 (ICAM4)” (Beth Israel Deaconess Medical Center, Inc., priority 2014, dated 2020).

Details: more cytotoxic than the comparators

Compound: COc1cc2cc(c1Cl)N(C)C(=O)C[C@H](OC(=O)[C@H](C)N(C)C(C)=O)[C@]1(C)O[C@H]1[C@H](C)[C@@H]1C[C@@](O)(NC(=O)O1)[C@H](OC)/C=C/C=C(\C)C2 [Maytansine]
- cytotoxicity relative to doxorubicin, methotrexate and vinca alkyloid: 100- to 1000 fold
